Measured values taken from patent US8236820B2, “Anti-inflammatory compounds and uses thereof” (priority 2007, dated 2012).
pIC50: −log10 of the molar value.

Columns and labels:
Salmonella typhimurium = assay: Ames mutagenicity assay (reverse mutations); type: cell-based; conditions: two strains, presence and absence of S9 activation
Description: We assessed the safety of phospho-sulindac I by examining its genotoxicity by the Ames test and its gastrointestinal and other toxicity by performing a toxicological study in mice.
The mutagenic potential of phospho-sulindac I was evaluated by measuring its ability to induce reverse mutations at selected loci of two strains of Salmonella typhimurium in the presence and absence of S9 activation.

[1] = system: spermidine/spermine N^1-acetyltransferase (SSAT); assay: SSAT enzymatic activity in SW480 cells; type: cell-based, human
Description: SW480 cells were incubated without or with phospho-sulindac I (P-S) for up to 24 h and SSAT activity was determined at each time point by determining the amount of labelled N1-acetylspermidine synthesized from [^14C]acetyl-CoA and unlabeled spermidine.
The effect of phospho-sulindac I on polyamines is mediated, at least in part, by activation of SSAT by phospho-sulindac I. It is known that conventional sulindac induces SSAT activity (Babbar et al., Cyclooxygenase-independent induction of apoptosis by sulindac sulfone is mediated by polyamines in colon cancer. J Biol Chem 2003; 278(48):47762-75.). Incubation of HT-29 and SW480 cells with 85 μM phospho-sulindac I for 24 h leads to a 3- and 4.4-fold increase of SSAT activity (P<0.05 versus control), respectively. On the other hand, incubation with sulindac led to a 1.5 and 2.5-fold increase of SSAT activity (P<0.05 versus control) in HT-29 and SW480 cells, respectively.

SW480 = assay: Cell viability (MTT) assay, 24-h IC50, SW480; type: cell-based, human; conditions: Homo sapiens, SW480, 24 h, read-out: 24-h IC50
SW480 colon cancer cells = assay: Nude mice xenograft study; type: in vivo; conditions: 50 mg/kg/day gavage, 14 days
Description: Nude mice xenograft study: Female nude mice CByJ.Cg-Foxn1 (5-6 weeks-old) were inoculated subcutaneously in their lower right flank with 1.5×10^6 SW480 colon cancer cells in a volume of 100 μl (containing 50% matrigel in PBS). Seven days later, animals were randomized into two groups (8 mice/group): group 1 received vehicle (1% (w/v) carboxy methylcellulose); group 2 received 50 mg/kg/day phospho-sulindac I. All drugs were administered in a solution of 1% (w/v) carboxy methylcellulose by gavage once daily (phospho-sulindac I and sulindac concentrations are equimolar). Tumors were measured twice a week with a digital microcaliper, and tumor volume (TV) was calculated using the formula: TV=[L×W×(L+W/2)×0.56], where L=length and W=width of tumor. After 14 days of treatment, animals were sacrificed, and tumors were removed and weighed.

HT29 = assay: Cell viability (MTT) assay, 24-h IC50, HT29; type: cell-based, human; conditions: Homo sapiens, HT-29, 24 h, read-out: 24-h IC50

Compound: CCOP(=O)(OCC)OCCCCOC(=O)CC1=C(C)/C(=C/c2ccc([S+](C)[O-])cc2)c2ccc(F)cc21 (stereo not drawn) [Phospho-sulindac I]
- genotoxicity (mutagenic potential) (Salmonella typhimurium): negative for genotoxicity
- induction of SSAT compared to vehicle-treated controls ([1]; SW480, 85 μM, 12 h of incubation): 4 fold
- maximum increase of SSAT ([1]; SW480, 85 μM, 18 h of incubation): 5.5 fold
- increase of SSAT activity ([1]; SW480, 24 h, phospho-sulindac I 85 μM, P<0.05 versus control): 4.4 fold
- pIC50 (SW480): 4.01
- tolerability in xenograft study (SW480 colon cancer cells): no weight loss or other signs of toxicity were observed
- mean tumor weight (SW480 colon cancer cells; mean±SEM, vehicle 0.246±0.041): 0.097±0.018
- reduction in tumor weight (SW480 colon cancer cells; vs vehicle, p<0.05): 60%
- pIC50 (HT29): 4.19
